Some results are limits rather than exact numbers.

Data set [1] in a line: Drug properties. Format: physicochemical.
Data set [2] has as its system LRRK2. Particulars: ref Fell et al., 2015, Henderson et al., West; cited from earlier work.
The subject of data set [3] is pT73-Rab10 in human neutrophils. As to the kind of experiment: Ex vivo pT73-Rab10 western blot, human neutrophils. Format: cell-based. The conditions noted are these: 100 nM, two hours. A general note: Immunoblotting shows a protein as a band on a membrane.
The subject of data set [4] is WT-LRRK2. Type of data set: in vivo, rat. The conditions noted are these: non-transgenic rats; for phospho-LRRK2 in total protein lysates from kidney: higher concentrations of inhibitor; for total LRRK2 protein in the brain: higher concentrations, three days; for total LRRK2 protein in the lung (normalized to HSC70): three days of drug treatment.
A short description of data set [5]: Single-dose IV/PO pharmacokinetics in rats. Format: in vivo, rat. The conditions noted are these: for bioavailability: oral dosing, 1% methylcellulose vehicle.
Data set [6] relates to pT73-Rab10 in mouse macrophages. As to the kind of experiment: Ex vivo pT73-Rab10 western blot, mouse macrophages. Particulars: 100 nM, two hours. Type of data set: cell-based.
For data set [7], the system named is pT73-Rab10 in human PBMCs. Kind of data set: Ex vivo pT73-Rab10 western blot, human PBMCs. Type of data set: cell-based. The conditions noted are these: 100 nM, two hours.
Data set [8] can be described thus: Liver microsome stability assay. Type of data set: in vitro ADME, macaque. The conditions noted are these: 2 μM compound, 0.5 mg mL−1 microsomes, with NADPH, one hour. For orientation: Liver microsomes are vesicles of endoplasmic reticulum, rich in cytochrome P450 enzymes.
For data set [9], the target named is recombinant human WT-LRRK2 (Homo sapiens, UniProt Q5S007). As to the kind of experiment: LanthaScreen LRRKtide phosphorylation assay, WT-LRRK2. Format: biochemical. The conditions noted are these: LanthaScreen at Km,app(ATP). (In general: Time-resolved FRET reads energy transfer from a long-lived donor to a nearby acceptor.)
Data set [10] can be described thus: In-diet dosing, plasma drug levels in rats. The conditions noted are these: chow up to 1050 mg kg−1. Format: in vivo, rat.

Sequence of recombinant human WT-LRRK2 (Q5S007 whole entry): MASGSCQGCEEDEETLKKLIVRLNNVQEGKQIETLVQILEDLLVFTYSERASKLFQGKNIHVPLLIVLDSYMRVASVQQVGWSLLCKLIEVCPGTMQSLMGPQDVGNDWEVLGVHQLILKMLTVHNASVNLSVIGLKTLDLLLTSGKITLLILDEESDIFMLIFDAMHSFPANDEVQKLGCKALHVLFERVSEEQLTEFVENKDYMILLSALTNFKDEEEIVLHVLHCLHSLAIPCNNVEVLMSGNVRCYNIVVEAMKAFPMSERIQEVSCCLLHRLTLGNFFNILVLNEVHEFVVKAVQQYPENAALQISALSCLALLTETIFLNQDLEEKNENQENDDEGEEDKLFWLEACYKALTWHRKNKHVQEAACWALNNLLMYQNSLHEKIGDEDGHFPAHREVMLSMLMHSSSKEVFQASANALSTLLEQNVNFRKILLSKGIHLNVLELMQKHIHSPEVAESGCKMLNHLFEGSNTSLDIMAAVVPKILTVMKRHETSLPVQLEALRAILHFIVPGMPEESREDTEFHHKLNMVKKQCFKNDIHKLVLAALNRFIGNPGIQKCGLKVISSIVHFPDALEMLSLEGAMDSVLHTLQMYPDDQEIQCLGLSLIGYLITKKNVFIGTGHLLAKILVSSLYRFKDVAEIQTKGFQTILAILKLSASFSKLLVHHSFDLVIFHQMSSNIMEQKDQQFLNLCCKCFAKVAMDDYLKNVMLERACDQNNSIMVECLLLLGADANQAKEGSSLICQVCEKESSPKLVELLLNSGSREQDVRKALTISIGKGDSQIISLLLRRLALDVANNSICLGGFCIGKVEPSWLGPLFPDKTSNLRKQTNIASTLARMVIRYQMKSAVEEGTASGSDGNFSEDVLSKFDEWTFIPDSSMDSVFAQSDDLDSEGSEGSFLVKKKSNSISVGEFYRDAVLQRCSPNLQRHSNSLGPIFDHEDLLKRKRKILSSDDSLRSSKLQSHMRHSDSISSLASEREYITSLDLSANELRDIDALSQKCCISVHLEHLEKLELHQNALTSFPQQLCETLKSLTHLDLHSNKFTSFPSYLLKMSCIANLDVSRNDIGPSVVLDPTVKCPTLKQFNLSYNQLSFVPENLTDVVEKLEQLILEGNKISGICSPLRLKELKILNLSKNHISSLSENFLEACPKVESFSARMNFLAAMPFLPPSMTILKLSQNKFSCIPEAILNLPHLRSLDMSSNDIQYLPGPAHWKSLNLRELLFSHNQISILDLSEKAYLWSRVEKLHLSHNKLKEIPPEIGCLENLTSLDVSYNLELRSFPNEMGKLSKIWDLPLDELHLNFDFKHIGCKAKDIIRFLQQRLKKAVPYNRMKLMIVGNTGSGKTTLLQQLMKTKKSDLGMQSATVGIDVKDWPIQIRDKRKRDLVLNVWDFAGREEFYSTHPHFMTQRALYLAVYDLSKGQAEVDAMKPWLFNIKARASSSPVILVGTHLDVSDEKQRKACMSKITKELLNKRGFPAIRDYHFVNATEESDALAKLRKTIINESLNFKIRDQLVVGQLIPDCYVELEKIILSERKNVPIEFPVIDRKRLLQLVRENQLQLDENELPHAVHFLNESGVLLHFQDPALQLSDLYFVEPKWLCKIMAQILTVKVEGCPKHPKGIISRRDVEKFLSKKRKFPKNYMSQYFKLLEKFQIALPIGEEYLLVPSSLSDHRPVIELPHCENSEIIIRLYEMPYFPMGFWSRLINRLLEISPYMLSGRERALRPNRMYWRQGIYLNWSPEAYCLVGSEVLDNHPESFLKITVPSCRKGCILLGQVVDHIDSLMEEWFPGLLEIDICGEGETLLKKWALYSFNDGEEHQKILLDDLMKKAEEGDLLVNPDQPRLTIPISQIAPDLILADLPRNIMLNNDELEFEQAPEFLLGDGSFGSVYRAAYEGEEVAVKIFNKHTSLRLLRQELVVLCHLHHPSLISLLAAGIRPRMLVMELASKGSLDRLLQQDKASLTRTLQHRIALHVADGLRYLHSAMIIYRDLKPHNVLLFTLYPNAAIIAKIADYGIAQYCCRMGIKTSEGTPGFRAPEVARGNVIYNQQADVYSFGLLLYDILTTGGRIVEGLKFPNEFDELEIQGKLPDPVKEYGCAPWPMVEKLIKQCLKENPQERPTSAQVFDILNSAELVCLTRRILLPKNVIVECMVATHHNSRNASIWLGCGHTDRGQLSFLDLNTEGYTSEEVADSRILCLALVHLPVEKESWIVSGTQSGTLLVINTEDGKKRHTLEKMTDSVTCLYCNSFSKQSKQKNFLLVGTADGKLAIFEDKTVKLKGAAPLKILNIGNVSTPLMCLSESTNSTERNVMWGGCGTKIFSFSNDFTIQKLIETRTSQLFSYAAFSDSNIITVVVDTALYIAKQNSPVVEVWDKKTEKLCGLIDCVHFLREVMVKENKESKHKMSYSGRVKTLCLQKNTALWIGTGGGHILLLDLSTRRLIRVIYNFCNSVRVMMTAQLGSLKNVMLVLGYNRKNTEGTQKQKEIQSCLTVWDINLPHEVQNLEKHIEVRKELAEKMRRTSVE

For `C[C@@H]1CN(c2cc(-c3n[nH]c4ccc(OC5(C)CC5)cc34)ncn2)C[C@H](C)O1` [MLi2], the aqueous solubility entry in data set [1] (compared to PF-360) is on record as “poor”. For the same molecule, the binding in vitro result in data set [2] is on record as “low to sub-nanomolar”. In data set [3], the pT73-Rab10 signal entry was “virtually eliminated pT73-Rab10 signal”. For the same molecule, in [4], the “phospho-LRRK2 in total protein lysates from kidney” value is reported as “essentially no phospho-LRRK2 remaining”, the “total LRRK2 protein in the brain” value is reported as “did not show these trends” and the “total LRRK2 protein in the lung (normalized to HSC70)” value is on record as “did not reduce”. Besides, in data set [5], the brain penetrant was ~ 75% and the bioavailability is ~ 40%. The pT73-Rab10 signal entry in data set [6] was “virtually eliminated pT73-Rab10 signal”. The pRab10 signal entry in data set [7] is given as “could not observe a reliable reduction in pRab10”. Moreover, the “microsomal stability, compound remaining” value in [8] is “no significant concentrations of compound left after one-hour incubation”.

As for `Cn1cc(-c2c[nH]c3ncnc(N4CCOCC4)c23)cc1C#N` [PF-360], the lipophilicity result in [1] (compared to MLi2) is “lower lipophilicity”. Also, in data set [2], the binding in vitro entry is given as “low to sub-nanomolar”. For the same molecule, in data set [4], the “phospho-LRRK2 in total protein lysates from kidney” value is reported as “essentially no phospho-LRRK2 remaining”, the “total LRRK2 protein in the brain” value is listed as “reduce total LRRK2 protein in the brain nearly to the same extent as reducing the amount of phosphorylated LRRK2 protein” and the “total LRRK2 protein in the lung (normalized to HSC70)” value is “did not reduce”. Further, in [5], the “brain-to-plasma ratio (total compound)” value turned out to be 0.48±0.03 and the bioavailability was ~ 40%. Moreover, the “correlation of plasma to brain concentrations (r)” value in [5] (total compound) worked out at 0.89. Also, the “more potent in blocking LRRKtide phosphorylation than autophosphorylation” value in data set [9] is on record as ~ 1 order of magnitude. Besides, the “highest plasma concentration achieved with in-diet dosing” value in data set [10] was no more than 100 nM. Moreover, the “microsomal stability, compound remaining” value in data set [8] was “no significant concentrations of compound left after one-hour incubation”.

Source of the values: paper PMC7041630 (Experimental neurology, 2018).
